Data on two compounds can be found in patent US20260000736A1, “PURIFIED LACTOFERRIN COMPOSITIONS AND METHODS OF USE” (Lactea Therapeutics LLC, priority 2023, published 2026).

Where a SMILES comes first, the peptide text is derived from it. Bridges are numbered along the chain shown (N, C = ends). [ ]: non-standard residue; d: D form. The star is where a group is joined. Ileψ(thiazoline)Cys = CC[C@H](C)[C@H](N)C1=N[C@H](C(=O)*)CS1; dOrn = NCCC[C@@H](N)C(=O)O

The test system of one experiment is SARS-CoV-2. Put plainly: SARS-CoV-2 Cytopathic Effect (CPE) reduction assay in Vero E6 cells. In kind it is cell-based. The note with it: Severe acute respiratory syndrome coronavirus 2, Vero C1008, 72 h. On the technique in general: Cytopathic effects are the visible damage that an infection or toxin causes in cultured cells.
The subject of experiment [1] is pigs with dermatome wounds. Put plainly: Pig dermatome wound healing model. The note with it: dermatome wounds 40×40 mm at a depth of 0.76 mm, topical treatment. In kind it is in vivo.
Description: In a first assessment in a pig model setting, using a dermatome, six wounds were made on each pig with three on the left side and three on the right side of each pig covering a surface area of 40×40 mm at a depth of 0.76 mm. […] For each pig, the wounds on the left of the animal were treated while the wounds on the right wide were left as untreated controls. […] Standard of care was advised on by veterinarians with experience in dealing with wound management in a farm setting.

In general, EC50 refers to the concentration at which the effect is half-maximal. The low end stands for a more potent agent, the high end for a less potent agent.

Take `CCC(CC)COC(=O)[C@H](C)N[P@](=O)(OC[C@H]1O[C@@](C#N)(c2ccc3c(N)ncnn23)[C@H](O)[C@@H]1O)Oc1ccccc1` [Remdesivir, reference compound]: a half-maximal effect in the experiment on SARS-CoV-2 (EC50) was put at 4.5 µM.
As for `CC[C@H](C)[C@H](N)C1=N[C@H](C(=O)N[C@@H](CC(C)C)C(=O)N[C@H](CCC(=O)O)C(=O)N[C@H](C(=O)N[C@H]2CCCCNC(=O)[C@H](CC(N)=O)NC(=O)[C@@H](CC(=O)O)NC(=O)[C@H](Cc3cnc[nH]3)NC(=O)[C@@H](Cc3ccccc3)NC(=O)[C@H]([C@@H](C)CC)NC(=O)[C@@H](CCCN)NC2=O)[C@@H](C)CC)CS1` [bacitracin, reference compound] ({Ileψ(thiazoline)Cys}-L[dE]IK[dOrn]I[dF]H[dD]N; lactam 4-C), the wound healing result in experiment [1] was “treated wounds were still open after one week”.
